Reference: patent US20240368163A1, “COMPOUNDS AND METHODS FOR MODULATING SPLICING” (REMIX THERAPEUTICS INC., priority 2021, published 2024)

Columns and labels:
Type in all cases: cell-based, human
[1] = test system: Target C; assay: HiBiT protein abundance assay, Target C; conditions: Homo sapiens, K562, 24 h, Table 13A, modified K562 cells
Outline: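 Luminescence from lytic HiBiT detection, taken after 24 h compound exposure at 37 °C, reports tagged protein abundance in knock-in cells seeded at 10000 cells/well. Doses spanned 10 points, 3-fold steps, top 10 μM final. A four-parameter logistic fit gave the 50% abundance concentration (IC50).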

[2] = test system: MYB; assay: HiBiT protein abundance assay, MYB; conditions: Homo sapiens, K562, 24 h, Table 13A, modified K562 cells
Outline: (§1)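 HiBiT knock-in K562, 10000 cells/well, 24 h cpd at 37 °C/5% CO2; 10-pt 3-fold series from 10 μM final; DMSO ≤0.25%. Lytic detection, luminescence read. 4PL fit → IC50 vs DMSO control; unmodified K562 = baseline.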

[3] = test system: HTT; assay: Splicing RT-qPCR assay, HTT mRNA canonical junction (CJ) and alternative junction (AJ); conditions: Homo sapiens; for AC50: increase in AJ mRNA
Outline: (§2)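 Splicing switch read by one-step RT-qPCR of canonical and alternative exon junctions, housekeeper-normalized (GAPDH/GUSB/PPIA), 2^(−ΔΔCt) vs DMSO as percent response. Cells (A673 or K562) dosed 24 h, 11 points 3-fold from 10 uM, DMSO ≤0.25%.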

[4] = test system: HTT; assay: HiBiT protein abundance assay, HTT; conditions: Homo sapiens, K562, 24 h, Table 13A, modified K562 cells
Outline: as §1

[5] = test system: Target C; assay: Splicing RT-qPCR panel, Target C canonical junction (CJ) mRNA; conditions: Homo sapiens, RT-qPCR panel, canonical junction mRNA; compound concentration having 50% response in CJ decrease; read-out: Target C IC50 (decrease in CJ mRNA levels)
Outline: as §2

[6] = test system: SMN2; assay: Splicing RT-qPCR panel, SMN2 canonical junction (CJ) mRNA; conditions: Homo sapiens, RT-qPCR panel, canonical junction mRNA; compound concentration having 50% response in CJ decrease; read-out: SMN2 IC50 (decrease in CJ mRNA levels)
Outline: as §2

[7] = test system: MYB; assay: Splicing RT-qPCR assay, MYB mRNA canonical junction (CJ) and alternative junction (AJ); conditions: Homo sapiens; for AC50: increase in AJ mRNA
Outline: as §2

[8] = 24 h, decrease in CJ mRNA, A673 or K562 cells, 24 hours treatment, RT-qPCR, read-out: HTT CJ IC50
[9] = 24 h, A673 or K562 cells, 24 hours treatment, RT-qPCR
[10] = RT-qPCR panel, canonical junction mRNA, compound concentration having 50% response in CJ decrease, read-out: HTT IC50 (decrease in CJ mRNA levels)
[11] = 24 h, decrease in CJ mRNA, A673 or K562 cells, 24 hours treatment, RT-qPCR, read-out: MYB CJ IC50
[12] = RT-qPCR panel, canonical junction mRNA, compound concentration having 50% response in CJ decrease, read-out: MYB IC50 (decrease in CJ mRNA levels)

| Compound | IC50 [1] [nM] | IC50 [2] [nM] | IC50 [3, 8] [nM] | AC50 [3, 9] [nM] | IC50 [3, 10] [nM] | IC50 [4] [nM] | IC50 [5] [µM] | IC50 [6] [nM] | IC50 [7, 11] [µM] | AC50 [7, 9] [µM] | IC50 [7, 12] [µM] |
| --- | --- | --- | --- | --- | --- | --- | --- | --- | --- | --- | --- |
| c1n[nH]cc1-c1ccc(-c2ccc(O[C@@H]3C[C@H]4CC[C@@H](C3)N4)nn2)c2cn[nH]c12 [Compound 328] | > 10000 | 1000 to 10000 | > 10000 | > 10000 | > 10000 | > 10000 | > 10 | 1000 to 10000 | > 10 | > 10 | > 10 |
| CN(c1ccc(-c2ccc(-c3cn[nH]c3)c3[nH]ncc23)nn1)[C@@H]1C[C@H]2CC[C@@H](C1)N2 [Compound 329] | > 10000 | > 10000 | > 10000 | > 10000 | > 10000 | > 10000 | > 10 | 1000 to 10000 | > 10 | > 10 | > 10 |
| CN(c1ccc(-c2ccc(-c3cnn(C)c(=O)c3)c3ncsc23)nn1)C1CC(C)(C)NC(C)(C)C1 [Compound 331, 2-methyl-5-(7-{6-[methyl(2,2,6,6-tetramethylpiperidin-4-yl)amino]pyridazin-3-yl}-1,3-benzothiazol-4-yl) pyridazin-3-one] | > 10000 | 1000 to 10000 | 1000 to 10000 | 1000 to 10000 | 1000 to 10000 | 100 to 1000 | > 10 | 100 to 1000 | 1 to 10 | 1 to 10 | 1 to 10 |
| c1cnn(-c2ccc(-c3ccc(O[C@@H]4C[C@H]5CC[C@@H](C4)N5)nn3)c3scnc23)c1 [Compound 334] | 1000 to 10000 | 100 to 1000 | 100 to 1000 | 1000 to 10000 | 100 to 1000 | 100 to 1000 | > 10 | 100 to 1000 | > 10 | 1 to 10 | > 10 |
| CC1(C)CC(Oc2ccc(-c3ccc(-n4cccn4)c4ncsc34)nn2)CC(C)(C)N1 [Compound 335, 4-(pyrazol-1-yl)-7-{6-[(2,2,6,6-tetramethylpiperidin-4-yl)oxy]pyridazin-3-yl}-1,3-benzothiazole] | 1000 to 10000 | 1000 to 10000 | 1000 to 10000 | 1000 to 10000 | 1000 to 10000 | 100 to 1000 | 1 to 10 | 100 to 1000 | 1 to 10 | 1 to 10 | 1 to 10 |
| Cn1cc(-c2c(F)cc(-c3ccc(NC4CCNCC4)nn3)c3[nH]ncc23)cn1 [Compound 338] | 1000 to 10000 | 1000 to 10000 | 1000 to 10000 | 1000 to 10000 | 1000 to 10000 | 1000 to 10000 | > 10 | 100 to 1000 | 1 to 10 | 1 to 10 | 1 to 10 |
| Cc1ncc(-c2ccc(-c3ccc(N(C)C4CC(C)(C)NC(C)(C)C4)nn3)c3scnc23)o1 [Compound 342] | 100 to 1000 | 100 to 1000 | 100 to 1000 | 100 to 1000 | 100 to 1000 | 100 to 1000 | 1 to 10 | < 100 | 1 to 10 | 1 to 10 | 1 to 10 |
| c1cnn(-c2ccc(-c3ccc(N[C@@H]4C[C@H]5CC[C@@H](C4)N5)nn3)c3scnc23)c1 [Compound 343] | 100 to 1000 | 100 to 1000 |  | 100 to 1000 | < 100 | < 100 | 0.1 to 1 | < 100 | 0.1 to 1 | 0.1 to 1 | 0.1 to 1 |
